Experimental data reported in patent US20120034613A1, “Apparatus and Method for Testing Relationships Between Gene Expression and Physical Appearance of Skin” (NSE Products, Inc., priority 2010, published 2012).

Test system: EpidermFT™ Skin Model (EFT-400) full thickness skin cultures
Test: Affymetrix GeneChip HG U133 Plus 2.0 microarray global gene expression, agent-exposed vs untreated skin cultures
Type: cell-based, human
Conditions: Salicin 0.5% vs Untreated Control, 24 hr treatment

OCc1ccccc1O[C@@H]1O[C@H](CO)[C@@H](O)[C@H](O)[C@H]1O [Salicin, 2-(Hydroxymethyl)phenyl β-D-glucospyranoside]
up: Direction ABHD2 (221815_at) | Direction ABHD2 (225337_at) | Direction ADAMTS5 (235368_at) | Direction ADAMTS6 (1570351_at) | Direction ADCYAP1 (230237_at) | Direction AHI1 (220841_s_at) | Direction AHI1 (221569_at) | Direction AKR1C1 (1562102_at) | Direction AKT3 (212607_at) | Direction AKT3 (212609_s_at) | Direction AKT3 (222880_at) | Direction AKT3 (224229_s_at) | Direction ALG9 (228817_at) | Direction ANKRD28 (213035_at) | Direction ANKRD28 (229307_at) | Direction ARMC8 (1555281_x_at) | Direction ARNT2 (202986_at) | Direction ATF3 (1554980_a_at) | Direction ATP2A3 (207522_s_at) | Direction BAG2 (209406_at) | Direction BCL2L11 (1558143_a_at) | Direction BNC2 (220272_at) | Direction BNC2 (235723_at) | Direction C1GALT1C1 (238989_at) | Direction C1orf67 /// DNAH14 (242283_at) | Direction C13orf33 (227058_at) | Direction CABLES1 (225532_at) | Direction CARD16 (1552701_a_at) | Direction CCR1 (205098_at) | Direction CDCP1 (1554110_at) | Direction CDR2 (209501_at) | Direction CHST2 (203921_at) | Direction CLGN (205830_at) | Direction CNOT3 (203239_s_at) | Direction CPM (241765_at) | Direction CPM (243403_x_at) | Direction CREM (207630_s_at) | Direction CUL4B (202213_s_at) | Direction CXCL1 (204470_at) | Direction CYP7B1 (207386_at) | Direction CYR61 (210764_s_at) | Direction DENND3 (212975_at) | Direction DENND5B (228551_at) | Direction DGKI (206806_at) | Direction DNAJB9 (202842_s_at) | Direction DNAJB9 (1554462_a_at) | Direction DNAJC10 (221781_s_at) | Direction DNAJC10 (221782_at) | Direction DOCK4 (205003_at) | Direction DOCK5 (230206_at) | Direction DOCK5 (230263_s_at) | Direction DOK6 (236290_at) | Direction DSEL (232825_s_at) | Direction DUSP4 (204015_s_at) | Direction DZIP1 (204557_s_at) | Direction EIF2AK3 (218696_at) | Direction ELL2 (214446_at) | Direction ELTD1 (219134_at) | Direction ENPP1 (205066_s_at) | Direction ENTPD7 (220153_at) | Direction EPS8 (202609_at) | Direction EREG (205767_at) | Direction ERO1LB (220012_at) | Direction FADS1 (208963_x_at) | Direction FADS1 (208964_s_at) | Direction FAM20A (226804_at) | Direction FAM107B (223058_at) | Direction FAM107B (223059_s_at) | Direction FAR2 (220615_s_at) | Direction FAT4 (219427_at) | Direction FEM1B (212374_at) | Direction FGF7 (1555103_s_at) | Direction FGF7 /// KGFLP1 /// KGFLP2 (1554741_s_at) | Direction FHOD3 (218980_at) | Direction FKBP11 (219117_s_at) | Direction FKBP11 (219118_at) | Direction FMN2 (1555471_a_at) | Direction FN1 (214701_s_at) | Direction FN1 (214702_at) | Direction FOXJ3 (217310_s_at) | Direction FPR1 (205119_s_at) | Direction GAS1 (204457_s_at) | Direction GCLM (203925_at) | Direction GCLM (236140_at) | Direction GEM (204472_at) | Direction GFPT1 (226886_at) | Direction GFPT2 (205100_at) | Direction GLIPR1 (204222_s_at) | Direction GRAMD1A (224807_at) | Direction GRAMD1B (212906_at) | Direction GUCY1A3 (221942_s_at) | Direction GUCY1A3 (229530_at) | Direction HERC3 (1554290_at) | Direction HEY1 (44783_s_at) | Direction HIST1H2AB /// HIST1H2AE (214469_at) | Direction HIST1H2AD /// HIST1H3A /// HIST1H3B /// HIST1H3C /// HIST1H3D /// HIST1H3E /// HIST1H3F /// HIST1H3G /// HIST1H3H /// HIST1H3I /// HIST1H3J (214472_at) | Direction HIST2H2AA3 /// HIST2H2AA4 (214290_s_at) | Direction HK2 (222305_at) | Direction HOXB2 (205453_at) | Direction HSD17B2 (204818_at) | Direction HSPA13 (202557_at) | Direction ID2 /// ID2B (213931_at) | Direction IGFBP5 (211958_at) | Direction ING1 (209808_x_at) | Direction IRAK2 (231779_at) | Direction IRAK3 (220034_at) | Direction ITPRIP (225582_at) | Direction JHDM1D (225142_at) | Direction KCNA3 (207237_at) | Direction KCNE4 (222379_at) | Direction KCNE4 (1552508_at) | Direction KCNJ8 (205303_at) | Direction KCNJ8 (205304_s_at) | Direction KLF15 (231015_at) | Direction KLHL29 (229310_at) | Direction LCP1 (208885_at) | Direction LOC285628 (232504_at) | Direction LOC440028 (1562606_a_at) | Direction LOC729222 /// PPFIBP1 (214375_at) | Direction LOC100128821 /// ZEB2 (235593_at) | Direction LOC100132244 (229438_at) | Direction LPAR1 (204036_at) | Direction LPAR1 (204037_at) | Direction LPAR1 (204038_s_at) | Direction LPPR4 (213496_at) | Direction LRCH2 (227688_at) | Direction LRRK2 (229584_at) | Direction MAGEA4 (214254_at) | Direction MAP3K4 (216199_s_at) | Direction MAP3K5 (203836_s_at) | Direction MAP9 (220145_at) | Direction MASP1 (232224_at) | Direction MASP1 (235770_at) | Direction MESDC1 (223264_at) | Direction MGST1 (239001_at) | Direction MMD (203414_at) | Direction MTHFD2L (220346_at) | Direction MYO3B (1552578_a_at) | Direction NAMPT (217738_at) | Direction NEGR1 (1553194_at) | Direction NEXN (226103_at) | Direction NFKB2 (207535_s_at) | Direction NFKBIZ (223217_s_at) | Direction NOVA1 (205794_s_at) | Direction NR4A1 (202340_x_at) | Direction NRP2 (228699_at) | Direction OLAH (222945_x_at) | Direction PAPPA (201981_at) | Direction PAPPA (224940_s_at) | Direction PAPPA (224941_at) | Direction PAPPA (228128_x_at) | Direction PAPPA (1559400_s_at) | Direction PCDH7 (210941_at) | Direction PCSK1 (205825_at) | Direction PDE4D (211840_s_at) | Direction PEG10 (212092_at) | Direction PF4 (206390_x_at) | Direction PGM2L1 (229256_at) | Direction PHLDA1 (217996_at) | Direction PHTF1 (215285_s_at) | Direction PI15 (229947_at) | Direction PID1 (219093_at) | Direction PID1 (237867_s_at) | Direction PISD (202392_s_at) | Direction PITPNC1 (238649_at) | Direction PLAUR (211924_s_at) | Direction PLEKHA3 (223370_at) | Direction PTGER4 (204897_at) | Direction PTGES (207388_s_at) | Direction PTGES (210367_s_at) | Direction PTGS1 (205128_x_at) | Direction PTGS1 (215813_s_at) | Direction PTHLH (206300_s_at) | Direction PTHLH (211756_at) | Direction PTPRG (204944_at) | Direction QKI (228540_at) | Direction RAB3B (205924_at) | Direction RAB3B (227123_at) | Direction RAB23 (220955_x_at) | Direction RABGGTB (209180_at) | Direction RABGGTB (213704_at) | Direction RAI14 (202052_s_at) | Direction RASSF8 (235996_at) | Direction RGS3 (203823_at) | Direction RGS5 (209070_s_at) | Direction RGS12 (242079_at) | Direction RHOQ (212122_at) | Direction SEC24A (212902_at) | Direction SEMA3A (206805_at) | Direction SETDB2 (235339_at) | Direction SGK1 (201739_at) | Direction SH3RF3 (228461_at) | Direction SHOX (207570_at) | Direction SLC6A15 (232263_at) | Direction SLC11A2 (237106_at) | Direction SLC20A1 (230494_at) | Direction SLC43A3 (210692_s_at) | Direction SLFN11 (226743_at) | Direction SLIT2 (209897_s_at) | Direction SNHG12 (223774_at) | Direction SOCS2 (203373_at) | Direction SPON1 (209437_s_at) | Direction SPON1 (213993_at) | Direction SQSTM1 (213112_s_at) | Direction ST3GAL1 (208322_s_at) | Direction ST3GAL1 (225033_at) | Direction STK17B (205214_at) | Direction SULF1 (212344_at) | Direction TAF1A (206613_s_at) | Direction TAGLN (205547_s_at) | Direction TBC1D1 (212350_at) | Direction TBC1D1 (227945_at) | Direction TGM2 (201042_at) | Direction THBS1 (201108_s_at) | Direction THBS1 (239336_at) | Direction THRAP3 (242163_at) | Direction TMEM38B (222735_at) | Direction TMEM38B (222736_s_at) | Direction TMEM39A (218615_s_at) | Direction TMEM39A (222690_s_at) | Direction TMTC1 (226322_at) | Direction TMTC1 (226931_at) | Direction TNC (216005_at) | Direction TNFAIP6 (206026_s_at) | Direction TNIP3 (220655_at) | Direction TRPA1 (217590_s_at) | Direction TRPC4 (224220_x_at) | Direction UBE2B (239163_at)
